{"source": "patent US8962244B2", "about": "“Compounds for modulating RNA binding proteins and uses therefor” (University of Massachusetts, priority 2009, dated 2015)"}
{"molecular_target": "T1, POS-1 (Caenorhabditis elegans, UniProt G5EF15)", "T1 construct": "6-his tag (N); made in house; host or cells: E. coli BL21 (DE3) Gold", "T1 sequence (G5EF15 80-180)": "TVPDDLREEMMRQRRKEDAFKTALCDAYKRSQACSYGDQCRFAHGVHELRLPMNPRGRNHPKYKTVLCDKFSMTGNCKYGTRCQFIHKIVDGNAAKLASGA", "experiment": "Fluorescence polarization screening of POS-1 binding to fluorescein-labeled BMF018 RNA", "conditions": "192 μM test compound; score = polarization relative to no-drug and no-protein controls; 0.25 = 75% inhibition; lowest score = greatest inhibition; read-out: POS-1 score", "units": {"remaining activity at 192 µM": "%"}}
{"smiles": "CCOC(=O)c1ccc(N2NC(=O)/C(=C/c3cccc(OC(=O)c4cccs4)c3)C2=O)cc1", "note": "[DL]", "remaining activity at 192 µM": 14.3}
{"smiles": "COC(=O)c1c(NC(=O)CCC(=O)O)sc2c1CCC(C(C)(C)C)C2", "note": "(centres unmarked) [DM]", "remaining activity at 192 µM": 14.4}
{"smiles": "CC1=NN(c2ccc(S(N)(=O)=O)cc2)C(=O)/C1=C\\c1ccc(OC(=O)c2cccs2)cc1", "note": "[DN]", "remaining activity at 192 µM": 16.7}
{"smiles": "CCOc1ccc(C(=O)NC(=S)Nc2ccccc2C(=O)O)cc1Br", "note": "[DO]", "remaining activity at 192 µM": 16.7}
{"smiles": "Cc1cc(NS(=O)(=O)c2ccc(NC(=O)c3ccc(C(C)(C)C)c(Br)c3)cc2)no1", "note": "[DP]", "remaining activity at 192 µM": 16.8}
{"smiles": "O=C(Nc1cc(NC(=O)c2ccccc2)cc(C(=O)Nc2ccc(O)cc2C(=O)O)c1)c1ccccc1", "note": "[DQ]", "remaining activity at 192 µM": 17.2}
{"smiles": "CCOC(=O)c1ccc(N2NC(=O)/C(=C/c3ccc(OC(=O)c4ccco4)c(OC)c3)C2=O)cc1", "note": "[DR]", "remaining activity at 192 µM": 17.2}
{"smiles": "Cc1ccc(NS(=O)(=O)c2ccc(F)cc2)c(NS(=O)(=O)c2ccc(F)cc2)c1", "note": "[DS]", "remaining activity at 192 µM": 17.7}
{"smiles": "Cc1cc(OCC(=O)Nc2ccc(S(=O)(=O)Nc3nccs3)cc2)ccc1Br", "note": "[DT]", "remaining activity at 192 µM": 17.7}
{"smiles": "COc1cc(-c2n[nH]c(=S)[nH]2)cc(OC)c1OC", "note": "[DU]", "remaining activity at 192 µM": 18}
{"smiles": "O=C(NC(=S)Nc1ccccc1C(=O)O)c1cc(I)ccc1Cl", "note": "[DV]", "remaining activity at 192 µM": 18.5}
{"smiles": "Cc1ccc(C)c(OCC(=O)Nc2ccc(S(=O)(=O)Nc3nccs3)cc2)c1C", "note": "[DW]", "remaining activity at 192 µM": 19}
{"smiles": "COc1cc(/C=C2\\C(=O)N(c3cccc(C(=O)O)c3)N=C2C)ccc1OC(=O)c1ccco1", "note": "[DX]", "remaining activity at 192 µM": 19.7}
{"smiles": "Cc1ccc(S(=O)(=O)NCc2nc3ccccc3[nH]2)cc1", "note": "[DY]", "remaining activity at 192 µM": 20}
{"smiles": "O=C(NC(=S)Nc1ccc(C(=O)O)c(Cl)c1)c1ccc(Cl)c(Cl)c1", "note": "[DZ]", "remaining activity at 192 µM": 20.1}
{"smiles": "CCOC(=O)c1c(NC(=O)C2CC=CCC2C(=O)O)sc(C)c1-c1ccc(Cl)cc1", "note": "(centres unmarked) [EA]", "remaining activity at 192 µM": 20.3}
{"smiles": "C#CCSc1nc2sc3c(c2c(=O)n1C)CCC3", "note": "[EB]", "remaining activity at 192 µM": 21}
{"smiles": "O=S(=O)(NCc1nc2ccccc2[nH]1)c1ccc(Cl)cc1", "note": "[EC]", "remaining activity at 192 µM": 21.7}
{"smiles": "CC(=O)Nc1nc2ccc(S(=O)(=O)NC(C)=O)cc2s1", "note": "[ED]", "remaining activity at 192 µM": 22}
{"smiles": "CCOc1cc(/C=C2\\C(=O)N(c3ccc(C(=O)O)cc3)N=C2C)ccc1OC(=O)c1cccs1", "note": "[EE]", "remaining activity at 192 µM": 22.5}
{"smiles": "CCOC(=O)C1=C(C)Nc2[nH]c(=O)[nH]c(=O)c2C1c1ccccc1[N+](=O)[O-]", "note": "(centres unmarked) [EF]", "remaining activity at 192 µM": 22.8}
{"smiles": "O=C1NN(c2ccc(Cl)c(Cl)c2)C(=O)/C1=C/c1cccc(OC(=O)c2cccs2)c1", "note": "[EG]", "remaining activity at 192 µM": 22.9}
{"smiles": "O=C(NC(=S)Nc1ccc(Cl)c(C(=O)O)c1)c1ccc(-c2ccccc2)cc1", "note": "[EH]", "remaining activity at 192 µM": 23}
{"smiles": "O=C(O)c1cccc(NC(=S)NC(=O)c2ccc(-c3ccc(Cl)cc3)o2)c1", "note": "[EI]", "remaining activity at 192 µM": 23}
{"smiles": "O=C(O)c1ccc(Cl)c(NC(=S)NC(=O)c2cc(I)ccc2Cl)c1", "note": "[EJ]", "remaining activity at 192 µM": 23.4}
{"smiles": "Cc1ccc(CC(=O)Nc2ccc(S(=O)(=O)Nc3nccs3)cc2)cc1", "note": "[EK]", "remaining activity at 192 µM": 23.7}
{"smiles": "Cc1ccc2c(Cl)c(C(=O)Nc3nnn[nH]3)sc2c1", "note": "[EL]", "remaining activity at 192 µM": 23.8}
{"smiles": "Sc1nnc(-c2cc(-c3ccccc3)nc3ccccc23)o1", "note": "[EM]", "remaining activity at 192 µM": 24.2}
{"smiles": "Cc1cc(NS(=O)(=O)c2ccc(Nc3nc(-c4ccc(F)c(C)c4)cs3)cc2)no1", "note": "[EN]", "remaining activity at 192 µM": 24.7}
{"smiles": "O=C(NC(=S)Nc1ccccc1C(=O)O)c1ccc(-c2ccc(Cl)cc2)o1", "note": "[EO]", "remaining activity at 192 µM": 25.4}
{"smiles": "CCCCOc1cccc(C(=O)Nc2ccc(S(=O)(=O)Nc3nnc(CC)s3)cc2)c1", "note": "[EP]", "remaining activity at 192 µM": 26}
{"smiles": "COc1c(Cl)cc(Cl)cc1C(=O)NC(=S)Nc1ccc(C(=O)O)cc1", "note": "[EQ]", "remaining activity at 192 µM": 26}
{"smiles": "Cc1c(C(=O)NC(=S)Nc2cc(C(=O)O)ccc2Cl)cccc1[N+](=O)[O-]", "note": "[ER]", "remaining activity at 192 µM": 26.2}
{"smiles": "Oc1ccccc1-c1n[nH]c(=S)n1Cc1ccccc1", "note": "[ES]", "remaining activity at 192 µM": 26.5}
{"smiles": "CCCCC(=O)NC(c1ccccc1Cl)c1cc([N+](=O)[O-])c2cccnc2c1O", "note": "(centres unmarked) [ET]", "remaining activity at 192 µM": 26.5}
{"smiles": "CCCC(=O)NC(c1ccc(Cl)cc1)c1cc([N+](=O)[O-])c2cccnc2c1O", "note": "(centres unmarked) [EU]", "remaining activity at 192 µM": 26.6}
{"smiles": "CC(C)(C)c1ccc(C(=O)Nc2ccc(S(=O)(=O)Nc3nccs3)cc2)cc1Br", "note": "[EV]", "remaining activity at 192 µM": 27.5}
{"smiles": "CCOC(=O)c1ccc(N2NC(=O)/C(=C/c3ccc(OC(=O)c4cccs4)c(OC)c3)C2=O)cc1", "note": "[EW]", "remaining activity at 192 µM": 27.5}
